# From ChEMBL document CHEMBL1149623, “Identification of antibacterial and antiviral activities of novel fused 1,2,4-triazine esters” (2007)
# Assays:
# Assay type in all cases: functional
# Staphylococcus aureus [1] = test: Antibacterial activity against Staphylococcus aureus ATCC 25923 at 100 mg/mL after 24 hrs by disc diffusion method
# [2] = test system: Staphylococcus epidermidis; test: Antibacterial activity against Staphylococcus epidermidis at 100 mg/mL after 24 hrs by disc diffusion method
# Streptococcus pyogenes [3] = test: Antibacterial activity against Streptococcus pyogenes at 100 mg/mL after 24 hrs by disc diffusion method
# Escherichia coli [4] = test: Antibacterial activity against Escherichia coli ATCC 25922 at 100 mg/mL after 24 hrs by disc diffusion method
# Staphylococcus aureus [5] = test: Antibacterial activity against Staphylococcus aureus ATCC 25923 at 200 mg/mL after 24 hrs by disc diffusion method
# [6] = test system: Staphylococcus epidermidis; test: Antibacterial activity against Staphylococcus epidermidis at 200 mg/mL after 24 hrs by disc diffusion method
# Streptococcus pyogenes [7] = test: Antibacterial activity against Streptococcus pyogenes at 200 mg/mL after 24 hrs by disc diffusion method
# Escherichia coli [8] = test: Antibacterial activity against Escherichia coli ATCC 25922 at 200 mg/mL after 24 hrs by disc diffusion method
SMILES,Inhibition (Staphylococcus aureus [1]) [mm],Inhibition [2] [mm],Inhibition (Streptococcus pyogenes [3]) [mm],Inhibition (Escherichia coli [4]) [mm],Inhibition (Staphylococcus aureus [5]) [mm],Inhibition [6] [mm],Inhibition (Streptococcus pyogenes [7]) [mm],Inhibition (Escherichia coli [8]) [mm]
COC(=O)CC1NN=C2N(CCN2c2ccc(Cl)cc2)C1=O (centres undefined),10,16,16,<9,,,,
CCOC(=O)CC1NN=C2N(CCN2c2ccc(OC)cc2)C1=O (centres undefined),<9,<9,>20,16,,,,
CCOC(=O)CC1NN=C2N(CCN2c2cccc(Cl)c2)C1=O (centres undefined),10,<9,>20,>20,,,,
COC(=O)CC1NN=C2N(CCN2c2ccccc2)C1=O (centres undefined),10,16,>20,<9,,,,
COC(=O)CC1NN=C2N(CCN2c2ccc(OC)cc2)C1=O (centres undefined),10,16,>20,>20,,,,
CC1(C)S[C@@H]2[C@H](NC(=O)[C@H](N)c3ccccc3)C(=O)N2[C@H]1C(=O)O [AMPICILLIN],,,,,16,10,16,16
